Measurements reported in patent US11331369B2, “Endoparasitic depsipeptides” (Zoetis Services LLC, priority 2017, dated 2022).

Tested on: microfilariae of Dirofilaria immitis
Assay: Dirofilaria immitis, Microfilaria (DiMF) In vitro Assay
Assay type: cell-based
Details: 72 h, read-out: DiMF Minimum Effective Dose (MED), approximately 72 hours incubation, microfilariae assessed for survival or paralysis

Compound | minimal effective concentration [µM]
CC(C)C[C@H]1C(=O)O[C@H](Cc2ccc(Cn3cc(-c4ccccn4)cn3)cc2)C(=O)N(C)[C@@H](CC(C)C)C(=O)O[C@H](C)C(=O)N(C)[C@@H](CC(C)C)C(=O)O[C@H](Cc2ccc(Cn3cc(-c4ccccn4)cn3)cc2)C(=O)N(C)[C@@H](CC(C)C)C(=O)O[C@H](C)C(=O)N1C [Example 1b-71, (3S,6R,9S,12R,15S,18R,21S,24R)-3,9,15,21-tetraisobutyl-4,6,10,16,18,22-hexamethyl-12,24-bis(4-((4-(pyridin-2-yl)-1H-pyrazol-1-yl)methyl)benzyl)-1,7,13,19-tetraoxa-4,10,16,22-tetraazacyclotetracosan-2,5,8,11,14,17,20,23-octaone] | 0.01 to 0.1
CC(C)C[C@H]1C(=O)O[C@H](Cc2ccc(Cn3cc(CCO)cn3)cc2)C(=O)N(C)[C@@H](CC(C)C)C(=O)O[C@H](C)C(=O)N(C)[C@@H](CC(C)C)C(=O)O[C@H](Cc2ccc(Cn3cc(CCO)cn3)cc2)C(=O)N(C)[C@@H](CC(C)C)C(=O)O[C@H](C)C(=O)N1C [Example 1b-75, (3S,6R,9S,12R,15S,18R,21S,24R)-6,18-bis(4-((4-(2-hydroxyethyl)-1H-pyrazol-1-yl)methyl)benzyl)-3,9,15,21-tetraisobutyl-4,10,12,16,22,24-hexamethyl-1,7,13,19-tetraoxa-4,10,16,22-tetraazacyclotetracosan-2,5,8,11,14,17,20,23-octaone] | 0.01 to 0.1
CC(C)C[C@H]1C(=O)O[C@H](Cc2ccc(Cn3cc(-c4cnccn4)cn3)cc2)C(=O)N(C)[C@@H](CC(C)C)C(=O)O[C@H](C)C(=O)N(C)[C@@H](CC(C)C)C(=O)O[C@H](Cc2ccc(Cn3cc(-c4cnccn4)cn3)cc2)C(=O)N(C)[C@@H](CC(C)C)C(=O)O[C@H](C)C(=O)N1C [Example 1b-87, (3S,6R,9S,12R,15S,18R,21S,24R)-3,9,15,21-tetraisobutyl-4,6,10,16,18,22-hexamethyl-12,24-bis(4-((4-(pyrazin-2-yl)-1H-pyrazol-1-yl)methyl)benzyl)-1,7,13,19-tetraoxa-4,10,16,22-tetraazacyclotetracosan-2,5,8,11,14,17,20,23-octaone] | 0.01 to 0.1
CC(C)C[C@H]1C(=O)O[C@H](Cc2ccc(Cn3ccc(CO)n3)cc2)C(=O)N(C)[C@@H](CC(C)C)C(=O)O[C@H](C)C(=O)N(C)[C@@H](CC(C)C)C(=O)O[C@H](Cc2ccc(Cn3ccc(CO)n3)cc2)C(=O)N(C)[C@@H](CC(C)C)C(=O)O[C@H](C)C(=O)N1C [Example 1b-97, (3S,6R,9S,12R,15S,18R,21S,24R)-6,18-bis(4-((3-(hydroxymethyl)-1H-pyrazol-1-yl)methyl)benzyl)-3,9,15,21-tetraisobutyl-4,10,12,16,22,24-hexamethyl-1,7,13,19-tetraoxa-4,10,16,22-tetraazacyclotetracosan-2,5,8,11,14,17,20,23-octaone] | 0.01 to 0.1
CC(C)C[C@H]1C(=O)O[C@H](Cc2ccc(Cn3ccc(C#N)n3)cc2)C(=O)N(C)[C@@H](CC(C)C)C(=O)O[C@H](C)C(=O)N(C)[C@@H](CC(C)C)C(=O)O[C@H](Cc2ccc(Cn3ccc(C#N)n3)cc2)C(=O)N(C)[C@@H](CC(C)C)C(=O)O[C@H](C)C(=O)N1C [Example 1b-103, 1,1′-(((((2R,5S,8R,11S,14R,17S,20R,23S)-5,11,17,23-tetraisobutyl-4,8,10,16,20,22-hexamethyl-3,6,9,12,15,18,21,24-octaoxo-1,7,13,19-tetraoxa-4,10,16,22-tetraazacyclotetracosane-2,14-diyl)bis(methylene))bis(4,1-phenylene))bis(methylene))bis(1H-pyrazole-3-carbonitrile)] | 0.001 to 0.01
CC(C)C[C@H]1C(=O)O[C@H](Cc2ccc(Cn3ccc(N4CCOCC4)n3)cc2)C(=O)N(C)[C@@H](CC(C)C)C(=O)O[C@H](C)C(=O)N(C)[C@@H](CC(C)C)C(=O)O[C@H](Cc2ccc(Cn3ccc(N4CCOCC4)n3)cc2)C(=O)N(C)[C@@H](CC(C)C)C(=O)O[C@H](C)C(=O)N1C [Example 1b-105, (3S,6R,9S,12R,15S,18R,21S,24R)-3,9,15,21-tetraisobutyl-4,6,10,16,18,22-hexamethyl-12,24-bis(4-((3-morpholino-1H-pyrazol-1-yl)methyl)benzyl)-1,7,13,19-tetraoxa-4,10,16,22-tetraazacyclotetracosan-2,5,8,11,14,17,20,23-octaone] | 0.001 to 0.01
CC(C)C[C@H]1C(=O)O[C@H](Cc2ccc(Cn3ccc(C4CCC4)n3)cc2)C(=O)N(C)[C@@H](CC(C)C)C(=O)O[C@H](C)C(=O)N(C)[C@@H](CC(C)C)C(=O)O[C@H](Cc2ccc(Cn3ccc(C4CCC4)n3)cc2)C(=O)N(C)[C@@H](CC(C)C)C(=O)O[C@H](C)C(=O)N1C [Example 1b-106, (3S,6R,9S,12R,15S,18R,21S,24R)-6,18-bis(4-((3-cyclobutyl-1H-pyrazol-1-yl)methyl)benzyl)-3,9,15,21-tetraisobutyl-4,10,12,16,22,24-hexamethyl-1,7,13,19-tetraoxa-4,10,16,22-tetraazacyclotetracosan-2,5,8,11,14,17,20,23-octaone] | 0.01 to 0.1
CC(C)C[C@H]1C(=O)O[C@H](Cc2ccc(Cn3ccc(-c4ccoc4)n3)cc2)C(=O)N(C)[C@@H](CC(C)C)C(=O)O[C@H](C)C(=O)N(C)[C@@H](CC(C)C)C(=O)O[C@H](Cc2ccc(Cn3ccc(-c4ccoc4)n3)cc2)C(=O)N(C)[C@@H](CC(C)C)C(=O)O[C@H](C)C(=O)N1C [Example 1b-111, (3S,6R,9S,12R,15S,18R,21S,24R)-6,18-bis(4-((3-(furan-3-yl)-1H-pyrazol-1-yl)methyl)benzyl)-3,9,15,21-tetraisobutyl-4,10,12,16,22,24-hexamethyl-1,7,13,19-tetraoxa-4,10,16,22-tetraazacyclotetracosan-2,5,8,11,14,17,20,23-octaone] | 0.01 to 0.1
CC(C)C[C@H]1C(=O)O[C@H](Cc2ccc(Cn3cc(C4CCOCC4)cn3)cc2)C(=O)N(C)[C@@H](CC(C)C)C(=O)O[C@H](C)C(=O)N(C)[C@@H](CC(C)C)C(=O)O[C@H](Cc2ccc(Cn3cc(C4CCOCC4)cn3)cc2)C(=O)N(C)[C@@H](CC(C)C)C(=O)O[C@H](C)C(=O)N1C [Example 1b-116, (3S,6R,9S,12R,15S,18R,21S,24R)-3,9,15,21-tetraisobutyl-4,6,10,16,18,22-hexamethyl-12,24-bis(4-((4-(tetrahydro-2H-pyran-4-yl)-1H-pyrazol-1-yl)methyl)benzyl)-1,7,13,19-tetraoxa-4,10,16,22-tetraazacyclotetracosan-2,5,8,11,14,17,20,23-octaone] | 0.01 to 0.1
Cc1nn(Cc2ccc(C[C@H]3OC(=O)[C@H](CC(C)C)N(C)C(=O)[C@@H](C)OC(=O)[C@H](CC(C)C)N(C)C(=O)[C@@H](Cc4ccc(Cn5nc(C)c(C#N)c5C)cc4)OC(=O)[C@H](CC(C)C)N(C)C(=O)[C@@H](C)OC(=O)[C@H](CC(C)C)N(C)C3=O)cc2)c(C)c1C#N [Example 1b-117, 1,1′-(((((2R,5S,8R,11S,14R,17S,20R,23S)-5,11,17,23-tetraisobutyl-4,8,10,16,20,22-hexamethyl-3,6,9,12,15,18,21,24-octaoxo-1,7,13,19-tetraoxa-4,10,16,22-tetraazacyclotetracosane-2,14-diyl)bis(methylene))bis(4,1-phenylene))bis(methylene))bis(3,5-dimethyl-1H-pyrazole-4-carbonitrile)] | 0.01 to 0.1
CC(C)C[C@H]1C(=O)O[C@H](Cc2ccc(Cn3ccc(-c4ccccn4)n3)cc2)C(=O)N(C)[C@@H](CC(C)C)C(=O)O[C@H](C)C(=O)N(C)[C@@H](CC(C)C)C(=O)O[C@H](Cc2ccc(Cn3ccc(-c4ccccn4)n3)cc2)C(=O)N(C)[C@@H](CC(C)C)C(=O)O[C@H](C)C(=O)N1C [Example 1b-120, (3S,6R,9S,12R,15S,18R,21S,24R)-3,9,15,21-tetraisobutyl-4,6,10,16,18,22-hexamethyl-12,24-bis(4-((3-(pyridin-2-yl)-1H-pyrazol-1-yl)methyl)benzyl)-1,7,13,19-tetraoxa-4,10,16,22-tetraazacyclotetracosan-2,5,8,11,14,17,20,23-octaone] | 0.01 to 0.1
Cc1c(CO)nn(Cc2ccc(C[C@H]3OC(=O)[C@H](CC(C)C)N(C)C(=O)[C@@H](C)OC(=O)[C@H](CC(C)C)N(C)C(=O)[C@@H](Cc4ccc(Cn5nc(CO)c(C)c5C(F)(F)F)cc4)OC(=O)[C@H](CC(C)C)N(C)C(=O)[C@@H](C)OC(=O)[C@H](CC(C)C)N(C)C3=O)cc2)c1C(F)(F)F [Example 1b-124, (3S,6R,9S,12R,15S,18R,21S,24R)-6,18-bis(4-((3-(hydroxymethyl)-4-methyl-5-(trifluoromethyl)-1H-pyrazol-1-yl)methyl)benzyl)-3,9,15,21-tetraisobutyl-4,10,12,16,22,24-hexamethyl-1,7,13,19-tetraoxa-4,10,16,22-tetraazacyclotetracosan-2,5,8,11,14,17,20,23-octaone] | 0.01 to 0.1
CCc1nn(Cc2ccc(C[C@H]3OC(=O)[C@H](CC(C)C)N(C)C(=O)[C@@H](C)OC(=O)[C@H](CC(C)C)N(C)C(=O)[C@@H](Cc4ccc(Cn5nc(CC)c(N)c5CC)cc4)OC(=O)[C@H](CC(C)C)N(C)C(=O)[C@@H](C)OC(=O)[C@H](CC(C)C)N(C)C3=O)cc2)c(CC)c1N [Example 1b-133, (3S,6R,9S,12R,15S,18R,21S,24R)-6,18-bis(4-((4-amino-3,5-diethyl-1H-pyrazol-1-yl)methyl)benzyl)-3,9,15,21-tetraisobutyl-4,10,12,16,22,24-hexamethyl-1,7,13,19-tetraoxa-4,10,16,22-tetraazacyclotetracosan-2,5,8,11,14,17,20,23-octaone] | 0.01 to 0.1
Cc1nn(Cc2ccc(C[C@H]3OC(=O)[C@H](CC(C)C)N(C)C(=O)[C@@H](C)OC(=O)[C@H](CC(C)C)N(C)C(=O)[C@@H](Cc4ccc(Cn5cc(C#N)c(C)n5)cc4)OC(=O)[C@H](CC(C)C)N(C)C(=O)[C@@H](C)OC(=O)[C@H](CC(C)C)N(C)C3=O)cc2)cc1C#N [Example 1b-135, 1,1′-(((((2R,5S,8R,11S,14R,17S,20R,23S)-5,11,17,23-tetraisobutyl-4,8,10,16,20,22-hexamethyl-3,6,9,12,15,18,21,24-octaoxo-1,7,13,19-tetraoxa-4,10,16,22-tetraazacyclotetracosane-2,14-diyl)bis(methylene))bis(4,1-phenylene))bis(methylene))bis(3-methyl-1H-pyrazole-4-carbonitrile)] | 0.001 to 0.01
